Test system: P. putida F1
Assay: Growth of P. putida F1 test tube cultures in MMC medium with ICR 191 (mutation procedure 1)
Type: cell-based, Pseudomonas putida
Settings: 16 to 18 hour incubation, 30° C., dark
Method: In procedure 1, cells were grown overnight in TSB at 30° C. and diluted 10^-4 with phosphate buffer (100 mM, pH 7.2). Several 18×150 mm test tubes containing 3 ml of MMC medium plus 0 (control), 10, 20, 30, 40, 50, 75, or 100 mg/l ICR 191 were inoculated with 0.1 ml of the diluted inoculum. Test tube cultures were incubated in the dark at 30° C. with 220 RPM agitation. […] The cells from 20 mg/l ICR 191 culture were harvested by centrifugation, washed twice with phosphate buffer.

Which results are given for `COc1ccc2nc3cc(Cl)ccc3c(NCCCNCCCl)c2c1` [ICR 191]?
effect on growth (10 mg/l ICR 191): no detectable effect on growth; level of growth relative to control (20 mg/l ICR 191): approximately half that of the control; growth of culture (30 mg/l ICR 191): a trace of growth; growth of culture (ICR 191 concentrations above 30 mg/l): completely inhibited growth

Reference: patent US5824540A, “Pseudomonas putida strain with dioxygenase activity” (Merck & Co., Inc., priority 1996, dated 1998)
